Measurements taken from patent US20160130278A1 (TAISHO PHARMACEUTICAL CO., LTD, priority 2013, published 2016).

Target: T1, human type 1 glycine transporter (GlyT1) (Homo sapiens, UniProt P48067)
T1 construct: T98G cells (glioma cells) expressing human type 1 glycine transporter (GlyT1) were used
T1 sequence (P48067 1-706): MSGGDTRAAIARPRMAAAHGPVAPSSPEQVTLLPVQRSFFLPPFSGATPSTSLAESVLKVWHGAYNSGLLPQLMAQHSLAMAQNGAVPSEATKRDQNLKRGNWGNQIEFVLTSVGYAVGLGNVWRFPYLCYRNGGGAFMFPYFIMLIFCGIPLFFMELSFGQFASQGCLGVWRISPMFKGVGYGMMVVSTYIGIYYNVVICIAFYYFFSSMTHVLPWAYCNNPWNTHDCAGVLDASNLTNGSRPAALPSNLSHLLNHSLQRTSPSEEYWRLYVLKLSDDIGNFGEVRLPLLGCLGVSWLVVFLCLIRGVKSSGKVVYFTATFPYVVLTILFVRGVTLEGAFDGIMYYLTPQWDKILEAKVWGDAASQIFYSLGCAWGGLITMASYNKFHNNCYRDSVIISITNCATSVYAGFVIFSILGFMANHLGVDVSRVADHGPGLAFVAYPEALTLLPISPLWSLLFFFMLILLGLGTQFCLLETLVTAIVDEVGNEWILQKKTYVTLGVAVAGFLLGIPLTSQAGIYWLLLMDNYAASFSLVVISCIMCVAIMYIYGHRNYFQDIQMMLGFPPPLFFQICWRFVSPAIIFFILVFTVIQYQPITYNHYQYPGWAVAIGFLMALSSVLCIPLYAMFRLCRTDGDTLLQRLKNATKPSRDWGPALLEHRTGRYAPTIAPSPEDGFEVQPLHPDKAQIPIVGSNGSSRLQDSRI
Assay: Glycine uptake inhibition experiment ([3H]glycine uptake)
Type: cell-based
Outline: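 T98G glioma cells expressing human GlyT1 were pretreated 10 min with compound in HEPES buffer pH 7.4 (0.2% BSA), then incubated with compound plus 250 nM final [3H]glycine for 15 min at room temperature. Intracellular radioactivity was counted after NaOH lysis; 10 μM ALX5407 defined non-specific uptake. IC50 came from 10^−9–10^−5 M curves.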

SMILES | IC50 (GlyT1) [nM] | IC50 (human GlyT1) [nM]
O=C(NC(c1cccc(Cl)n1)C1(O)CCC(F)(F)CC1)c1cccc(C(F)(F)F)c1Cl (single isomer, unassigned) [Compound 352, 2-chloro-N-[(6-chloropyridin-2-yl)(4,4-difluoro-1-hydroxycyclohexyl)methyl]-3-(trifluoromethyl)benzamide] | 150 | 
O=C(NC(c1cccc(-n2cccn2)c1)C1(O)CCCC1)c1nccc(C(F)(F)F)c1Cl (single isomer, unassigned) [Compound 82, 3-chloro-N-{(1-hydroxycyclopentyl)[3-(1H-pyrazol-1-yl)phenyl]methyl}-4-(trifluoromethyl)pyridine-2-carboxamide] | 89 | 
O=C(NC(c1ccccc1Cl)C1(O)CCC(F)(F)CC1)c1ccc(C(F)(F)F)nc1Cl (single isomer, unassigned) [Compound 409, 2-chloro-N-[(2-chlorophenyl)(4,4-difluoro-1-hydroxycyclohexyl)methyl]-6-(trifluoromethyl)pyridine-3-carboxamide] |  | 1100
O=C(NC(c1ccccc1Cl)C1(O)CCCC1)c1nccc(C(F)(F)F)c1Cl (stereo not drawn) [Compound 44, 3-chloro-N-[(2-chlorophenyl)(1-hydroxycyclopentyl)methyl]-4-(trifluoromethyl)pyridine-2-carboxamide] | 66 | 
Cc1cccc(C(NC(=O)c2nccc(C(F)(F)F)c2Cl)C2(O)CCCC2)c1 (stereo not drawn) [Compound 48, 3-chloro-N-[(1-hydroxycyclopentyl)(3-methylphenyl)methyl]-4-(trifluoromethyl)pyridine-2-carboxamide] | 670 | 
O=C(NC(c1ccc(F)c(Cl)c1)[C@]1(O)CC[C@@H](F)CC1)c1nccc(C(F)(F)F)c1Cl (single isomer, unassigned) [Compound 228, 3-chloro-N-[(3-chloro-4-fluorophenyl)(cis-4-fluoro-1-hydroxycyclohexyl)methyl]-4-(trifluoromethyl)pyridine-2-carboxamide] | 4200 | 
CCn1cc(-c2cccc(C(NC(=O)c3nccc(C(F)(F)F)c3Cl)C3(O)CCC(F)(F)CC3)c2)cn1 (stereo not drawn) [Compound 86, 3-chloro-N-{(4,4-difluroo-1-hydroxycyclohexyl)[3-(1-ethyl-1H-pyrazol-4-yl)phenyl]methyl}-4-(trifluoromethyl)pyridine-2-carboxamide] | 73 | 
O=C(NC(c1cccc(-c2cccnc2)c1)C1(O)CCCCC1)c1nccc(C(F)(F)F)c1Cl (single isomer, unassigned) [Compound 28, 3-chloro-N-{(1-hydroxycyclohexyl)[3-(pyridin-3-yl)phenyl]methyl}-4-(trifluoromethyl)pyridine-2-carboxamide] | 20 | 

The remaining compounds from weak to strong by IC50 (GlyT1), led by results:

IC50 (GlyT1) [nM] | IC50 (human GlyT1) [nM] | SMILES
3000 |  | O=C(NC(c1ccnc(Cl)c1)[C@]1(O)CC[C@@H](F)CC1)c1nccc(C(F)(F)F)c1Cl (single isomer, unassigned) [Compound 258]
2300 |  | O=C(NC(c1cc(Cl)ccc1F)[C@]1(O)CC[C@@H](F)CC1)c1cc(C(F)(F)F)cnc1Cl (single isomer, unassigned) [Compound 378, 2-chloro-N-[(5-chloro-2-fluroophenyl)(cis-4-fluoro-1-hydroxycyclohexyl)methyl]-5-(trifluoromethyl)pyridine-3-carboxamide]
2000 |  | CCn1cc(-c2cccc(C(NC(=O)c3c(Cl)ccc(OC)c3F)C3(O)CCC(F)(F)CC3)c2)cn1 (stereo not drawn) [Compound 183, 6-chloro-N-{(4,4-difluoro-1-hydroxycyclohexyl)[3-(1-ethyl-1H-pyrazol-4-yl)phenyl]methyl}-2-fluoro-3-methoxybenzamide]
620 |  | O=C(NC(c1cc(Cl)ccn1)C1(O)CCC(F)(F)CC1)c1ccc(C(F)(F)F)nc1Cl (single isomer, unassigned) [Compound 350, 2-chloro-N-[(4-chloropyridin-2-yl)(4,4-difluoro-1-hydroxycyclohexyl)methyl]-6-(trifluoromethyl)pyridine-3-carboxamide]
